“Also recorded” adds a separate entry of the source. Peptide text beside a SMILES is read from it.
Key:
Type in all cases: in vivo
[1] = test system: 2-3 month old male Sprague Dawley rats; assay: Stereotypy behaviour (circling and head weaving) in the open field
Experimental: Vehicle treated animals received saline vehicle injections instead of GLYX-13 and ketamine injections. Animals were placed into the open field immediately after the final dose, and behaviour was analysed for 20 min. N=8-12.

somatosensory cortex = assay: Attenuation in somatosensory cortex with GLYX-13 pre-treatment followed by ketamine (FIG. 4)
[2] = test system: adult male C57BL/6 male mice; assay: Novel object recognition test (NOR), discrimination index
Experimental: The discrimination index is calculated using the following formula: (time spent exploring novel object−time spent exploring familiar object)/(total time spent in exploring both the novel and familiar objects).
Novel Object recognition Test (“NOR”) testing in mice was adapted from (Hashimoto K, Fujita Y, Shimizu E, Iyo M (2005). Phencyclidine-induced cognitive deficits in mice are improved by subsequent subchronic administration of clozapine, but not haloperidol. European journal of pharmacology 519(1-2): 114-117). See also, e.g., Rajagopal, et al., Current Pharmaceutical Design 2014, 20, 1. The NOR box is an open box made out of Plexiglas (52 cm L; 52 cm W; 31 cm H). The dimensions of the box we used for mice was identical to the one used for rats. The box was positioned approximately 30 cm above the floor. The walls of the box have white background, as opposed to the black background in the rat NOR studies. […] Three days prior to testing, mice were habituated to the empty NOR arena for an hour. The NOR test in mice is similar to that previously employed to study rat NOR except that the acquisition and retention trials were 10 min in duration, followed by an intertrial interval (ITI) of 24 hours during which the mice were returned to their home cages, whereas in rats, the acquisition and retention trials were three min in duration separated by a one min ITI (Horiguchi M, Meltzer HY (2012). The role of 5-HT1A receptors in phencyclidine (PCP)-induced novel object recognition (NOR) deficit in rats. Psychopharmacology 221(2): 205-215). We compared 3, 5, and 10 min times for acquisition and retention trial explorations and found 10 minutes to be optimal for reliable data collection. Both trials were recorded for blind scoring later on.
All data are expressed as mean±S.E.M. Exploration data were analysed by a two-way analysis of variance (ANOVA). This detected the main effect of drug treatment, the main effect of task, and the interaction between drug treatment and object exploration. When a significant effect was found, further analysis by a post hoc Student's t-test was performed to compare the times spent exploring the novel and familiar object. The primary endpoint was the discrimination index (DI). The DI (novel-familiar/novel+familiar) data were analysed using one-way ANOVA followed by the Bonferroni test when a significant effect was detected by the ANOVA.

SMILES: CC(O)C(N)C(=O)N1CCCC1C(=O)N1CCCC1C(=O)NC(C(N)=O)C(C)O (stereo not shown) [GLYX-13] (H-TPPT-NH2; configuration not given here)
- Number of stereotypy behaviour (circling and head weaving), inhibition of ketamine-induced stereotypy ([1]; GLYX-13 3 mg/kg iv 30 min before ketamine 10 mg/kg iv, behaviour analysed for 20 min): inhibits ketamine (10 mg/kg iv) induced stereotypy
- Attenuation in somatosensory cortex (somatosensory cortex; pre-treatment with 3 mpk GLYX-13 followed by ketamine): significant attenuation
- Attenuation in somatosensory cortex (somatosensory cortex; pre-treatment with 30 mpk GLYX-13 followed by ketamine): significant attenuation
- Discrimination index (DI) in novel object recognition, reversal of acute ketamine-induced impairment ([2]; GLYX-13 3 mg/kg iv 30 min before ketamine 10 mg/kg sc, tested 20 min later, p<0.01 vs ketamine group): reverses acute ketamine (10 mg/kg sc) induced impairment in novel object recognition; also recorded: significant reversal in DI compared with ketamine group
- Discrimination index (DI) in novel object recognition, reversal of chronic ketamine-induced impairment ([2]; mice pre-treated with ketamine 30 mg/kg IP twice daily for 7 days, GLYX-13 1 mg/kg IV 1 hr before testing, p<0.001 vs ketamine group): reverses chronic ketamine-induced impairment in novel object recognition; also recorded: significant reversal in DI compared with ketamine group
- Discrimination index (DI) in novel object recognition, reversal of chronic PCP-induced impairment ([2]; mice pretreated with PCP 10 mg/kg IP twice daily for 7 days, GLYX-13 1 mg/kg IV 1 hr before testing, p<0.001 vs PCP group): reverses chronic phencyclidine-induced impairment in novel object recognition; also recorded: significant reversal in DI compared with PCP group

SMILES: c1ccc(C2(N3CCCCC3)CCCCC2)cc1 [PCP, phencyclidine, reference compound]
- Discrimination index (DI) in novel object recognition, effect of chronic PCP ([2]; PCP 10 mg/kg IP twice daily for 7 days, then saline vehicle 1 hr before testing, p<0.001 vs vehicle group): significant decrease in DI compared with the vehicle group

SMILES: CNC1(c2ccccc2Cl)CCCCC1=O (stereo not shown) [ketamine, reference compound]
- Number of stereotypy behaviour (circling and head weaving), effect of ketamine ([1]; ketamine 10 mg/kg iv, open field, 20 min): induced stereotypy
- Discrimination index (DI) in novel object recognition, effect of acute ketamine ([2]; ketamine 10 mg/kg sc, tested 20 min later, p<0.0001 vs vehicle group): significant decrease in DI compared with the vehicle group
- Discrimination index (DI) in novel object recognition, effect of chronic ketamine ([2]; ketamine 30 mg/kg IP twice daily for 7 days, then saline vehicle 1 hr before testing, p<0.001 vs vehicle group): significant decrease in DI compared with the vehicle group

Source: patent publication US20170072005A1, “COMBINATIONS OF NMDAR MODULATING COMPOUNDS” (NORTHWESTERN UNIVERSITY, priority 2014, published 2017)
